Assay results reported in PubChem BioAssay (NCI).
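The compound was tested at five concentrations on cells cultured in 96-well plates, with a 48-hour exposure period. Here, GI50 denotes the concentration required for 50% inhibition of growth. The concentration for full growth arrest is given as TGI.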

How the values were obtained:
Experiment in all cases: NCI anticancer screen, dose series, 48 h
786-0 renal = test system: 786-0 renal
A498 renal = test system: A498 renal
A549 NSCLC = test system: A549 NSCLC
ACHN renal = test system: ACHN renal
CAKI-1 renal = test system: CAKI-1 renal
CCRF-CEM leukemia = test system: CCRF-CEM leukemia
COLO 205 colon = test system: COLO 205 colon
DLD-1 colon = test system: DLD-1 colon
DMS 114 small cell lung = test system: DMS 114 small cell lung
EKVX NSCLC = test system: EKVX NSCLC
HCC-2998 colon = test system: HCC-2998 colon
HCT-116 colon = test system: HCT-116 colon
HCT-15 colon = test system: HCT-15 colon
HL-60(TB) leukemia = test system: HL-60(TB) leukemia
HOP-18 NSCLC = test system: HOP-18 NSCLC
HOP-62 NSCLC = test system: HOP-62 NSCLC
HOP-92 NSCLC = test system: HOP-92 NSCLC
HT29 colon = test system: HT29 colon
IGROV1 ovarian = test system: IGROV1 ovarian
K-562 leukemia = test system: K-562 leukemia
KM12 colon = test system: KM12 colon
KM20L2 colon = test system: KM20L2 colon
LOX IMVI melanoma = test system: LOX IMVI melanoma
LXFL 529 NSCLC = test system: LXFL 529 NSCLC
M14 melanoma = test system: M14 melanoma
M19-MEL melanoma = test system: M19-MEL melanoma
MALME-3M melanoma = test system: MALME-3M melanoma
MOLT-4 leukemia = test system: MOLT-4 leukemia
NCI-H23 lung = test system: NCI-H23 lung
NCI-H460 lung = test system: NCI-H460 lung
NCI-H522 lung = test system: NCI-H522 lung
OVCAR-3 ovarian = test system: OVCAR-3 ovarian
OVCAR-4 ovarian = test system: OVCAR-4 ovarian
OVCAR-5 ovarian = test system: OVCAR-5 ovarian
OVCAR-8 ovarian = test system: OVCAR-8 ovarian
RPMI-8226 leukemia = test system: RPMI-8226 leukemia
RXF 393 renal = test system: RXF 393 renal
RXF-631 renal = test system: RXF-631 renal
SF-268 CNS = test system: SF-268 CNS
SF-295 CNS = test system: SF-295 CNS
SF-539 CNS = test system: SF-539 CNS
SK-MEL-28 melanoma = test system: SK-MEL-28 melanoma
SK-MEL-5 melanoma = test system: SK-MEL-5 melanoma
SK-OV-3 ovarian = test system: SK-OV-3 ovarian
SN12C renal = test system: SN12C renal
SNB-19 CNS = test system: SNB-19 CNS
SNB-75 CNS = test system: SNB-75 CNS
SR leukemia = test system: SR leukemia
SW-620 colon = test system: SW-620 colon
TK-10 renal = test system: TK-10 renal
U251 CNS = test system: U251 CNS
UACC-257 melanoma = test system: UACC-257 melanoma
UACC-62 melanoma = test system: UACC-62 melanoma
UO-31 renal = test system: UO-31 renal

Structure (SMILES): CCC[CH2][Sn]1([CH2]CCC)[O]C(=O)c2cccc(C)c2[O]1
- GI50 (786-0 renal): 1070 nM
- TGI (786-0 renal): 2260 nM
- GI50 (A498 renal): 317 nM
- TGI (A498 renal): 867 nM
- GI50 (A549 NSCLC): 1460 nM
- TGI (A549 NSCLC): 2790 nM
- GI50 (ACHN renal): 551 nM
- TGI (ACHN renal): 1740 nM
- GI50 (CAKI-1 renal): 258 nM
- TGI (CAKI-1 renal): 852 nM
- GI50 (CCRF-CEM leukemia): 260 nM
- TGI (CCRF-CEM leukemia): 924 nM
- GI50 (COLO 205 colon): 188 nM
- TGI (COLO 205 colon): 1540 nM
- GI50 (DLD-1 colon): 722 nM
- TGI (DLD-1 colon): 2050 nM
- GI50 (DMS 114 small cell lung): 231 nM
- TGI (DMS 114 small cell lung): 565 nM
- GI50 (EKVX NSCLC): 1420 nM
- TGI (EKVX NSCLC): 2770 nM
- GI50 (HCC-2998 colon): 1270 nM
- TGI (HCC-2998 colon): 2600 nM
- GI50 (HCT-116 colon): 1250 nM
- TGI (HCT-116 colon): 2500 nM
- GI50 (HCT-15 colon): 592 nM
- TGI (HCT-15 colon): 2700 nM
- GI50 (HL-60(TB) leukemia): 297 nM
- TGI (HL-60(TB) leukemia): 1370 nM
- GI50 (HOP-18 NSCLC): 1080 nM
- TGI (HOP-18 NSCLC): 2270 nM
- GI50 (HOP-62 NSCLC): 2340 nM
- TGI (HOP-62 NSCLC): 4.16 µM
- GI50 (HOP-92 NSCLC): 1280 nM
- TGI (HOP-92 NSCLC): 2580 nM
- GI50 (HT29 colon): 1500 nM
- TGI (HT29 colon): 2970 nM
- GI50 (IGROV1 ovarian): 1350 nM
- TGI (IGROV1 ovarian): 2720 nM
- GI50 (K-562 leukemia): 259 nM
- TGI (K-562 leukemia): 897 nM
- GI50 (KM12 colon): 1080 nM
- TGI (KM12 colon): 2360 nM
- GI50 (KM20L2 colon): 1350 nM
- TGI (KM20L2 colon): 2640 nM
- GI50 (LOX IMVI melanoma): 210 nM
- TGI (LOX IMVI melanoma): 448 nM
- GI50 (LXFL 529 NSCLC): 141 nM
- TGI (LXFL 529 NSCLC): 440 nM
- GI50 (M14 melanoma): 577 nM
- TGI (M14 melanoma): 1880 nM
- GI50 (M19-MEL melanoma): 477 nM
- TGI (M19-MEL melanoma): 1690 nM
- GI50 (MALME-3M melanoma): 441 nM
- TGI (MALME-3M melanoma): 1550 nM
- GI50 (MOLT-4 leukemia): 218 nM
- TGI (MOLT-4 leukemia): 699 nM
- GI50 (NCI-H23 lung): 649 nM
- TGI (NCI-H23 lung): 1980 nM
- GI50 (NCI-H460 lung): 2480 nM
- TGI (NCI-H460 lung): 5.75 µM
- GI50 (NCI-H522 lung): 119 nM
- TGI (NCI-H522 lung): 250 nM
- GI50 (OVCAR-3 ovarian): 1110 nM
- TGI (OVCAR-3 ovarian): 2320 nM
- GI50 (OVCAR-4 ovarian): 1330 nM
- TGI (OVCAR-4 ovarian): 2610 nM
- GI50 (OVCAR-5 ovarian): 1780 nM
- TGI (OVCAR-5 ovarian): 3.16 µM
- GI50 (OVCAR-8 ovarian): 1040 nM
- TGI (OVCAR-8 ovarian): 2380 nM
- GI50 (RPMI-8226 leukemia): 250 nM
- TGI (RPMI-8226 leukemia): 810 nM
- GI50 (RXF 393 renal): 290 nM
- TGI (RXF 393 renal): 1020 nM
- GI50 (RXF-631 renal): 240 nM
- TGI (RXF-631 renal): 535 nM
- GI50 (SF-268 CNS): 349 nM
- TGI (SF-268 CNS): 1460 nM
- GI50 (SF-295 CNS): 1560 nM
- TGI (SF-295 CNS): 2990 nM
- GI50 (SF-539 CNS): 660 nM
- TGI (SF-539 CNS): 1910 nM
- GI50 (SK-MEL-28 melanoma): 454 nM
- TGI (SK-MEL-28 melanoma): 1510 nM
- GI50 (SK-MEL-5 melanoma): 1090 nM
- TGI (SK-MEL-5 melanoma): 2330 nM
- GI50 (SK-OV-3 ovarian): 1880 nM
- TGI (SK-OV-3 ovarian): 3.4 µM
- GI50 (SN12C renal): 598 nM
- TGI (SN12C renal): 1840 nM
- GI50 (SNB-19 CNS): 363 nM
- TGI (SNB-19 CNS): 1360 nM
- GI50 (SNB-75 CNS): 239 nM
- TGI (SNB-75 CNS): 766 nM
- GI50 (SR leukemia): 401 nM
- TGI (SR leukemia): 1820 nM
- GI50 (SW-620 colon): 200 nM
- TGI (SW-620 colon): 548 nM
- GI50 (TK-10 renal): 356 nM
- TGI (TK-10 renal): 911 nM
- GI50 (U251 CNS): 421 nM
- TGI (U251 CNS): 1440 nM
- GI50 (UACC-257 melanoma): 626 nM
- TGI (UACC-257 melanoma): 1950 nM
- GI50 (UACC-62 melanoma): 581 nM
- TGI (UACC-62 melanoma): 1820 nM
- GI50 (UO-31 renal): 1030 nM
- TGI (UO-31 renal): 2220 nM
